The values below are quoted from earlier work in patent US20240360075A1, “N-SUBSTITUTED C6 CYCLYL CARBOXAMIDE COMPOUNDS AND USES THEREOF” (ALCON INC., priority 2023, published 2024).

Each structure is given as a SMILES string.

The target of data set [1] is TRPM8 (Mus musculus, UniProt Q8R4D5). Conditions: TRPV1 antagonists, described by Behrendt et al.; read-out: IC50 to block the response of TRPM8 to menthol; cited from earlier work.
Data set [2] addresses T1, TRPM8 (Homo sapiens, UniProt Q7Z2W7).
T1 construct: purchased Eurofins (Cerep) item #3316
The following applies: reported by the Eurofins website; cited from earlier work.

Chain of TRPM8 (Mus musculus, UniProt Q8R4D5) (Q8R4D5 whole entry): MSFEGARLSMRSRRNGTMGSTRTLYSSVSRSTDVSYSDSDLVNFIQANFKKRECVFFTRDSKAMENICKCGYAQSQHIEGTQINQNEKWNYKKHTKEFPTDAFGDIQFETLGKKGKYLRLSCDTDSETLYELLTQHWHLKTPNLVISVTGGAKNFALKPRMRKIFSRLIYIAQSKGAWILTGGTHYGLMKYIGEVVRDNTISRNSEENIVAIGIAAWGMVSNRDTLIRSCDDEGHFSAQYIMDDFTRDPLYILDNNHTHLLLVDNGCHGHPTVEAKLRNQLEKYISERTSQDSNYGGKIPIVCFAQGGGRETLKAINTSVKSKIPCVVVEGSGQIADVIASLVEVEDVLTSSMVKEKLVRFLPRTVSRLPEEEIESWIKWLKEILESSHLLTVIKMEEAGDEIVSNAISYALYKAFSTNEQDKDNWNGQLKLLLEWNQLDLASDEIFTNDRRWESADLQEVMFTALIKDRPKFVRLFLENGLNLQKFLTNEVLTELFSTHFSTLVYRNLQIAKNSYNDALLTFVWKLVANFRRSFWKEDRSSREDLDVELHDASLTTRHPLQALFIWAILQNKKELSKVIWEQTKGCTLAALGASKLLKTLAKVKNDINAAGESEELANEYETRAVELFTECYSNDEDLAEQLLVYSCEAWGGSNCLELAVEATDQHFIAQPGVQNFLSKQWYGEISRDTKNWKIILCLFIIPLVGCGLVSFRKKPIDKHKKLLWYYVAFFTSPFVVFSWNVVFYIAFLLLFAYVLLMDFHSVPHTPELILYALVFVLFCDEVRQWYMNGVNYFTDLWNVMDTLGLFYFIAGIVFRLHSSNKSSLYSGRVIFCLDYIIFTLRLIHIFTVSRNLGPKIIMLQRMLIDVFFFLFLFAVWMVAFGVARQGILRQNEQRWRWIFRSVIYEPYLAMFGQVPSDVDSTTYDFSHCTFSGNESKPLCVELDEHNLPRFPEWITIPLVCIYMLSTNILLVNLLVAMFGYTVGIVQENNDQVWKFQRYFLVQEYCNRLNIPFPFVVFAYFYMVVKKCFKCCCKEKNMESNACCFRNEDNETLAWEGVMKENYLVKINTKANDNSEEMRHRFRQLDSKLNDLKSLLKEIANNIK
T1 sequence (Q7Z2W7 whole entry): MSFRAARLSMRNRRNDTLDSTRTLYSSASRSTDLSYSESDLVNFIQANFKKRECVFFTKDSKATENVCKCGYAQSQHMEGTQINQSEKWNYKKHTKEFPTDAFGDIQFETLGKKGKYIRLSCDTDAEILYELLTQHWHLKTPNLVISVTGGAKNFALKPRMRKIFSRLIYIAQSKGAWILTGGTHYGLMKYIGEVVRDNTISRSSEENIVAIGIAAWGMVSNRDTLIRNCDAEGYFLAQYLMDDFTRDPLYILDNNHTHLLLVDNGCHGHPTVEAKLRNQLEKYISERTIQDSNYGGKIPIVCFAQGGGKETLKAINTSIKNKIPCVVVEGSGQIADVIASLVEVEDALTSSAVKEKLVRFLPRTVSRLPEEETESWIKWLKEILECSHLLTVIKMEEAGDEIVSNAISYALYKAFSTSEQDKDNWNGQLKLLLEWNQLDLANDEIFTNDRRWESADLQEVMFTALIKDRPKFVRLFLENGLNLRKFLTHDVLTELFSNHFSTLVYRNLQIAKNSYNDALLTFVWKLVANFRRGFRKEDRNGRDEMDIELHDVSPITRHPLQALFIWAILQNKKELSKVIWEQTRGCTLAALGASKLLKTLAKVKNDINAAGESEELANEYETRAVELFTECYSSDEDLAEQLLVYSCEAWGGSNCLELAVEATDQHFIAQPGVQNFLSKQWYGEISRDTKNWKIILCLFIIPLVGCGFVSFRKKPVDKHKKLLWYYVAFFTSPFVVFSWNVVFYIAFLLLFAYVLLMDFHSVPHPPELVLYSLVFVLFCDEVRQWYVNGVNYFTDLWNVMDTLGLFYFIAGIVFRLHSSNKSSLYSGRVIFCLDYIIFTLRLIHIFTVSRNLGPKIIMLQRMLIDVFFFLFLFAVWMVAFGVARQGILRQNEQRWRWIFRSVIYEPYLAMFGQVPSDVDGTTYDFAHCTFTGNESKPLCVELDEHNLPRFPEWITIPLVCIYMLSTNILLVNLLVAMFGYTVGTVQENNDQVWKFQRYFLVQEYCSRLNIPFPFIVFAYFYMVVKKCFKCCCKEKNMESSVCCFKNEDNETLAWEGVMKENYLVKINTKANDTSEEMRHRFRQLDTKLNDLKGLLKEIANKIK

For the molecule `Oc1cc2c(cc1O)CN(C(=S)NCCc1ccc(Cl)cc1)CCC2` [capsazepine], the IC50 in data set [1] was 18 ± 1.1 µM.

As to `CC(C)(C)c1ccc(NC(=S)N2CCN(c3ncccc3Cl)CC2)cc1` [thio-BCTC], the IC50 in data set [1] was 3.5 ± 1.1 µM.

Turning to `O=C1NC(c2cccc([N+](=O)[O-])c2)=CCN1c1ccccc1O` [icilin], the EC50 in data set [2] is 0.028 µM.

`CC(C)(C)c1ccc(NC(=O)N2CCN(c3ncccc3Cl)CC2)cc1` [BCTC, 4-(3-Chloro-2-pyridinyl)-N-[4-(1,1-dimethylethyl)phenyl]-1-piperazinecarboxamide]: the IC50 in data set [1] was 0.8 ± 1 µM.

The term IC50 denotes the concentration that gives 50% inhibition. The EC50 is the concentration needed to bring the measured effect to its halfway point.
